Data on one compound can be found in US9421237B2, “Tripeptide boronic acid or boronic ester, preparative method and use thereof” (PEKING UNIVERSITY, priority 2009, dated 2016).

Series [1] deals with T1, 20S proteasome extracted from rat liver, chymotryptic-like (CT-L) activity (Rattus norvegicus, UniProt P18421+P28075).
T1 construct: 20S proteasome extracted from rat liver; from tissue; host or cells: rat liver
Kind of series: Proteasome inhibition, chymotryptic-like (CT-L) activity, fluorescent peptide Suc-leu-leu-Val-Tyr-AMC. Type of series: biochemical. The conditions noted are these: rat liver 20S proteasome, 37° C., 1 h. In short, it runs like this:
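Rat liver 20S proteasome (1 μg) incubated 1 h at 37° C with compounds and 50 μM Suc-Leu-Leu-Val-Tyr-AMC in 20 mM Tris-HCl.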

The target in series [2] is T2, 20S proteasome extracted from rat liver, trypsin-like (TL) activity (Rattus norvegicus, UniProt P40112+Q9JHW0).
T2 construct: 20S proteasome extracted from rat liver; from tissue; host or cells: rat liver
The series is described as follows: Proteasome inhibition, trypsin-like (TL) activity, fluorescent peptide Z-Ala-Arg-Arg-AMC. The conditions noted are these: rat liver 20S proteasome, 37° C., 1 h; read-out: T-L (IC50). It is filed as biochemical. In short, it runs like this: (§1)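 Rat liver 20S proteasome (1 μg) incubated 1 h at 37 °C with compounds, 50 μM fluorogenic peptide and 20 mM Tris-HCl. AMC release read at 380/440 nm and βNA release at 335/410 nm. Inhibition rate calculated against a 0.1% DMSO solvent control.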

For series [3], the system named is Bel-7402 human hepatocarcinoma cell. Kind of series: Preliminary anti-tumor screening in vitro, SRB method. It is filed as cell-based. Details: key to Test results: +++: inhibition rates at three doses are greater than 50%; ++: inhibition rates at two doses are greater than 50%; +: inhibition rate at one dose is greater than 50%. The following applies: Bel-7402, SRB. The essentials:
(§2)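 In vitro cytotoxicity by routine methods: MTT read-out for HL-60 cells, SRB read-out for BGC-823, Bel-7402 and KB cells.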
(The SRB assay estimates cell density from bound dye.)

Series [4] concerns KB human nasopharyngeal carcinoma cell. Described as above. Type of series: cell-based. Details: key to Test results: +++: inhibition rates at three doses are greater than 50%; ++: inhibition rates at two doses are greater than 50%; +: inhibition rate at one dose is greater than 50%. In short, it runs like this: as §2
Series [5] relates to BGC-823 human gastric cancer cell. The series is described as above. Type of series: cell-based. Details: key to Test results: +++: inhibition rates at three doses are greater than 50%; ++: inhibition rates at two doses are greater than 50%; +: inhibition rate at one dose is greater than 50%. The following applies: BGC-823, SRB. In short, it runs like this:
as §2

Series [6] relates to BXPC-3 (human pancreatic cancer cell strain). The series is described as follows: In vitro anti-tumor activity (IC50), standard MTT method. It is filed as cell-based. The conditions noted are these: 72 h, average of three determinations. How it is done: (§3) HL-60, BXPC-3 and U266 were obtained from the American Type Culture Collection (Manassas, Va.), and BGC-823 (human gastric carcinoma cell strain) was obtained from China Pharmaceutical University.
(§4) Test methods: HL-60 cells were cultured in IMDM medium containing 20% fetal bovine serum at 37° C. in 5% CO2; BGC-823 cells and BXPC-3 cells were cultured in RPMI1640 medium containing 10% fetal bovine serum at 37° C. in 5% CO2; U266 cells were cultured in RPMI1640 medium containing 15% fetal bovine serum at 37° C. in 5% CO2.
(§5) The cell growth was measured by the standard MTT method. A dispersions (150 μL, containing 3000 cells) medium was added into each well of a 96-well plate and allowed to grow, after 24 h, ten kinds of medium (50 μL) containing different concentrations of drugs were added into the corresponding wells, and continued to incubate for 72 h. Then a solution containing 5 mg/ml MTT (20 μL) was added into each well and incubated for another 4 h at 37° C. The plate was then centrifugated at 1000 rpm at 4° C. for 5 min, and the medium in upper layer was carefully discarded. The precipitates were dissolved in 100 μL of DMSO, and absorbance was read with an Infinite M200 (Tecan, Austria) microplate reader at 540 nm.
(§6) The result was expressed as IC50 value, which is the average value of three independent determinations.
Background: Tetrazolium assays rely on reduction of a dye to a coloured formazan, in cell work by metabolically active cells.

In series [7] the test system is U266 (multiple myeloma cell strain). The description is as above. Type of series: cell-based. The following applies: Homo sapiens, U-266, 72 h, average of three determinations. On the procedure:
as §3, §4, §5, §6

Series [8] concerns HL-60 (promyelocytic leukemia cell strain). Described as above. The conditions noted are these: Homo sapiens, 72 h, average of three determinations. Type of series: cell-based. On the procedure:
as §3, §4, §5, §6

Series [9] has as its system BGC-823 (human gastric carcinoma cell strain). Described as above. It is filed as cell-based. The conditions noted are these: 72 h, average of three determinations. On the procedure:
as §3, §4, §5, §6

Series [10] deals with HL-60 human leukemia cell. Kind of series: Preliminary anti-tumor screening in vitro, MTT method. Type of series: cell-based. Details: key to Test results: +++: inhibition rates at three doses are greater than 50%; ++: inhibition rates at two doses are greater than 50%; +: inhibition rate at one dose is greater than 50%. The following applies: HL-60, MTT. In short, it runs like this: as §2

The target in series [11] is T3, 20S proteasome extracted from rat liver, peptidyl-glutamyl-peptide-hydrolyzing (PGPH) enzyme activity (Rattus norvegicus, UniProt P28073+Q9JHW0).
T3 construct: 20S proteasome extracted from rat liver; from tissue; host or cells: rat liver
Kind of series: Proteasome inhibition, PGPH activity, fluorescent peptide Z-leu-leu-Glu-βNA. It is filed as biochemical. The following applies: rat liver 20S proteasome, 37° C., 1 h. The essentials: as §1

Setting [12] is: number of doses with inhibition > 50%.
[13] abbreviates: Homo sapiens, 0.05 μM, read-out: Inhibition rate %.
Setting [14] is: Homo sapiens, 0.5 μM, read-out: Inhibition rate %.
The mark [15] stands for this setting: Homo sapiens, 5 μM, read-out: Inhibition rate %.

The structures appear in SMILES notation. Bounds are passed on as bounds.

Broadly, the melting point is the temperature of the solid-liquid transition. The term IC50 denotes the midpoint of a concentration-inhibition curve. One may read the inhibition as the change of the read-out against control, counted positive when it falls. Compound `CC(C)C[C@H](NC(=O)[C@H](Cc1ccccc1)NC(=O)[C@H](Cc1ccc(O)cc1)NC(=O)c1cnccn1)B(O)O` [Compound 6d, N-pyrazineformyl-L-tyrosyl-L-phenylalanyl-L-leucine Boronic Acid] displayed a melting point of 219 to 221 °C. In addition, the IC50 in series [1] amounted to 0.263 ± 0.081 nM. Besides, the half-maximal inhibitory concentration (IC50) in [2] was over 20 nM. In [3] (setting [12]), the Test results was “+”. Besides, the inhibition at 0.05 µM in series [3] (setting [13]) was determined as 1.7%. Also, in series [3] (setting [14]), the inhibition at 0.5 µM is 8.79%. In addition, the inhibition at 5 µM in series [3] (setting [15]) was 90%. Moreover, the inhibition at 0.05 µM in series [4] (setting [13]) stood at 3.23%. For the same compound, in series [4] (setting [14]), the inhibition at 0.5 µM turned out to be 17.3%. Further, the inhibition at 5 µM in series [4] (setting [15]) amounted to 96.2%. For the same compound, the Test results in series [4] (setting [12]) is reported as “+”. In series [5] (setting [12]), the Test results is “+”. Moreover, the inhibition at 0.05 µM in series [5] (setting [13]) is 4.33%. The inhibition at 0.5 µM in series [5] (setting [14]) was determined as 46.7%. The inhibition at 5 µM in series [5] (setting [15]) amounted to 97.5%. Half-maximal inhibition in series [6] (IC50) was put at 257 nM. For the same compound, the IC50 in [7] turned out to be 66.2 nM. Also, the IC50 in series [8] amounted to 445 nM. Besides, the IC50 in series [9] was 2460 nM. The Test results in series [10] (setting [12]) was “+”. Besides, in series [10] (setting [13]), the inhibition at 0.05 µM is -21.1%. Further, the inhibition at 0.5 µM in series [10] (setting [14]) was -5.04%. Besides, the inhibition at 5 µM in series [10] (setting [15]) was determined as 87.9%. The compound further had an IC50 in series [11] of 2.5 ± 1.49 nM.
